The kinase profiling compilation of Christmann-Franck et al. (2016)
Each block holds one molecule with its values, some of them ahead of it.

Assays:
Assay in all cases: KINOMEscan competition binding
Settings in all cases: compound 10.0 µM
[1] = biological target: CHEK1 (human) (UniProt O14757)
[2] = biological target: PRKCD (human) (UniProt Q05655)
[3] = test system: ABL1 (human), P00519 [F317L]
[4] = biological target: ABL2 (human) (UniProt P42684)
[5] = biological target: ALK (human) (UniProt Q9UM73)
ALK (human), sequence (Q9UM73 whole entry, looked up): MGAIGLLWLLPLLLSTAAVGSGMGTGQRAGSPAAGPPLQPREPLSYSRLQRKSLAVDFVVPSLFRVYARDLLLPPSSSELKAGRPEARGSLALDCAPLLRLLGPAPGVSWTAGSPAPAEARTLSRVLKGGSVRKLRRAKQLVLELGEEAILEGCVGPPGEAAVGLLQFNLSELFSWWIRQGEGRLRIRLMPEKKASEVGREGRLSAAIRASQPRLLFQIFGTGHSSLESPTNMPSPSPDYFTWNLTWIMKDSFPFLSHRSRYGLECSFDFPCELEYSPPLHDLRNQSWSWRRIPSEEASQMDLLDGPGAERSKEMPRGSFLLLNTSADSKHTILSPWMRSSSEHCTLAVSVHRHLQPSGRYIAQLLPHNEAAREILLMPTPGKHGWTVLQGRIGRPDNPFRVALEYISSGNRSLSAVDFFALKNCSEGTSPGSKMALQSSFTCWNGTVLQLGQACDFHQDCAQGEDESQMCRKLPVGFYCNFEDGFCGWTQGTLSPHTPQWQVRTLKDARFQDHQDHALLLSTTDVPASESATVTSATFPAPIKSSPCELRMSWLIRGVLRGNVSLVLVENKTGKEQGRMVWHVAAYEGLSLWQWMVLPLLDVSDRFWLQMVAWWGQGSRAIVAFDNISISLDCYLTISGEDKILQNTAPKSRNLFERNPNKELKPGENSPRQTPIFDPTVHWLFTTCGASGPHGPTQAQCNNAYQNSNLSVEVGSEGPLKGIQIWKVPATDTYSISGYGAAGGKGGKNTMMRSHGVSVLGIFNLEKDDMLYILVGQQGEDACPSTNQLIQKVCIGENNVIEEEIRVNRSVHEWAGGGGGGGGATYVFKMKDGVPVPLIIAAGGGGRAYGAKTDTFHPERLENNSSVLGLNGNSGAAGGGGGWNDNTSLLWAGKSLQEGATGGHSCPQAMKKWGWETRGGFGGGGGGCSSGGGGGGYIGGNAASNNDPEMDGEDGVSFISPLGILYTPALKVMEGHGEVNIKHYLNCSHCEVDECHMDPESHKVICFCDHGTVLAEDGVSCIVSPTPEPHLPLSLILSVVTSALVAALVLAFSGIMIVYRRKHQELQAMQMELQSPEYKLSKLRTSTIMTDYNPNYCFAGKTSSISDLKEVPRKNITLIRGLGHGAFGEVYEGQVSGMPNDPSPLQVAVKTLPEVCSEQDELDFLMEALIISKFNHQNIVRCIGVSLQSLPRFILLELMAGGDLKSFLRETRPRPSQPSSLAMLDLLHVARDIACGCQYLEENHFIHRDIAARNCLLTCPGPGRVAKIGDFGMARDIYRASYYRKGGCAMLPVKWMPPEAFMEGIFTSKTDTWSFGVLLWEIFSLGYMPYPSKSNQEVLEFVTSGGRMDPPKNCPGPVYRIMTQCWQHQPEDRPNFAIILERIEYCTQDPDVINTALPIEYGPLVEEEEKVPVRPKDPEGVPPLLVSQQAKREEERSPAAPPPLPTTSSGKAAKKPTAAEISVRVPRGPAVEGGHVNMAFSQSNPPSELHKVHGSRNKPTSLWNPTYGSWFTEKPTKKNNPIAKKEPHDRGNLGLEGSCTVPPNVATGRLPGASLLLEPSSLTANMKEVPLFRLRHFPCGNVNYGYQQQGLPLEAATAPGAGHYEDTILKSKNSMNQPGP

[6] = biological target: AURKA (human) (UniProt O14965)
[7] = biological target: BRSK1 (human) (UniProt Q8TDC3)
[8] = biological target: CAMK1 (human) (UniProt Q14012)
CAMK1 (human), sequence (Q14012 whole entry, looked up): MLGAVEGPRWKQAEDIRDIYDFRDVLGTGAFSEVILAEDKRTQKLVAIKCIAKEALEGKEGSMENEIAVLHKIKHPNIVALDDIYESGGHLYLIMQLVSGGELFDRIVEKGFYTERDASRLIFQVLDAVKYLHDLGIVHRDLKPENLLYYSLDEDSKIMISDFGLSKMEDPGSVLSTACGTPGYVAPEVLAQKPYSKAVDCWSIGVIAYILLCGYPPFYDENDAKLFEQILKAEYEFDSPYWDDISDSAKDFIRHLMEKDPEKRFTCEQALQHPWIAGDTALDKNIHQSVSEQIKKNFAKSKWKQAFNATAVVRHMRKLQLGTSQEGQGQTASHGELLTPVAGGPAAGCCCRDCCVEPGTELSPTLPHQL

[9] = biological target: CDK11A (human) (UniProt Q9UQ88)
CDK11A (human), sequence (Q9UQ88 whole entry, looked up): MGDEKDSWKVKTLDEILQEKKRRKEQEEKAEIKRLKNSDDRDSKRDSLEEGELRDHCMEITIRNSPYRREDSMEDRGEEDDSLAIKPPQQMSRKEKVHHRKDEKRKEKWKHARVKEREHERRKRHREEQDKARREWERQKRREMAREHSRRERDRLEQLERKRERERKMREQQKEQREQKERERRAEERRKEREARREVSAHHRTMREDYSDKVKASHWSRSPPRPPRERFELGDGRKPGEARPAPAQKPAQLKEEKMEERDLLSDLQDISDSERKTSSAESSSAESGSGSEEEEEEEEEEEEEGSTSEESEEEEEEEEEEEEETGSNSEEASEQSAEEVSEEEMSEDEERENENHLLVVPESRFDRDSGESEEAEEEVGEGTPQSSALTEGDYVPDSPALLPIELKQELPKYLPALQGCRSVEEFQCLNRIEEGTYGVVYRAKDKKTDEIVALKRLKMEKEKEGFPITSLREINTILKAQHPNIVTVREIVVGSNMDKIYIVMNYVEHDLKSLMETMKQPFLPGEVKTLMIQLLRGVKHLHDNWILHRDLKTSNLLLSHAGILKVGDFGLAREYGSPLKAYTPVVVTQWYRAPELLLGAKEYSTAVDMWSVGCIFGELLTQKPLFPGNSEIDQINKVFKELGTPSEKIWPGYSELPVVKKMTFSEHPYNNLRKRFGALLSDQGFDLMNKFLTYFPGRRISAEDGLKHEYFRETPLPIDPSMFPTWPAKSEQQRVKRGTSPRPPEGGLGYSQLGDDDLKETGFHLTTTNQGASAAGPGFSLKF

[10] = biological target: CDK2 (human) (UniProt P24941)
[11] = biological target: CDK5 (human) (UniProt Q00535)
[12] = biological target: CHEK2 (human) (UniProt O96017)
[13] = biological target: DDR2 (human) (UniProt Q16832)
[14] = test system: EGFR (human), P00533 [G719C; 746-750 del]
[15] = test system: EGFR (human), P00533 [L861Q]
[16] = biological target: EPHA1 (human) (UniProt P21709)
[17] = biological target: EPHA2 (human) (UniProt P29317)
[18] = biological target: EPHA4 (human) (UniProt P54764)
[19] = biological target: EPHB3 (human) (UniProt P54753)
[20] = biological target: ERBB4 (human) (UniProt Q15303)
[21] = biological target: FGFR3 (human) (UniProt P22607)
[22] = biological target: FLT4 (human) (UniProt P35916)
[23] = biological target: FYN (human) (UniProt P06241)
[24] = biological target: HCK (human) (UniProt P08631)
[25] = biological target: IRAK3 (human) (UniProt Q9Y616)
[26] = biological target: ITK (human) (UniProt Q08881)
[27] = biological target: JAK1 JH1 catalytic (human) (UniProt P23458)
[28] = biological target: LIMK1 (human) (UniProt P53667)
[29] = biological target: LTK (human) (UniProt P29376)
[30] = biological target: MAP2K6 (human) (UniProt P52564)
[31] = biological target: MAPK10 (human) (UniProt P53779)
[32] = biological target: MAPK14 (human) (UniProt Q16539)
[33] = biological target: MET (human) (UniProt P08581)
MET (human), sequence (P08581 whole entry, looked up): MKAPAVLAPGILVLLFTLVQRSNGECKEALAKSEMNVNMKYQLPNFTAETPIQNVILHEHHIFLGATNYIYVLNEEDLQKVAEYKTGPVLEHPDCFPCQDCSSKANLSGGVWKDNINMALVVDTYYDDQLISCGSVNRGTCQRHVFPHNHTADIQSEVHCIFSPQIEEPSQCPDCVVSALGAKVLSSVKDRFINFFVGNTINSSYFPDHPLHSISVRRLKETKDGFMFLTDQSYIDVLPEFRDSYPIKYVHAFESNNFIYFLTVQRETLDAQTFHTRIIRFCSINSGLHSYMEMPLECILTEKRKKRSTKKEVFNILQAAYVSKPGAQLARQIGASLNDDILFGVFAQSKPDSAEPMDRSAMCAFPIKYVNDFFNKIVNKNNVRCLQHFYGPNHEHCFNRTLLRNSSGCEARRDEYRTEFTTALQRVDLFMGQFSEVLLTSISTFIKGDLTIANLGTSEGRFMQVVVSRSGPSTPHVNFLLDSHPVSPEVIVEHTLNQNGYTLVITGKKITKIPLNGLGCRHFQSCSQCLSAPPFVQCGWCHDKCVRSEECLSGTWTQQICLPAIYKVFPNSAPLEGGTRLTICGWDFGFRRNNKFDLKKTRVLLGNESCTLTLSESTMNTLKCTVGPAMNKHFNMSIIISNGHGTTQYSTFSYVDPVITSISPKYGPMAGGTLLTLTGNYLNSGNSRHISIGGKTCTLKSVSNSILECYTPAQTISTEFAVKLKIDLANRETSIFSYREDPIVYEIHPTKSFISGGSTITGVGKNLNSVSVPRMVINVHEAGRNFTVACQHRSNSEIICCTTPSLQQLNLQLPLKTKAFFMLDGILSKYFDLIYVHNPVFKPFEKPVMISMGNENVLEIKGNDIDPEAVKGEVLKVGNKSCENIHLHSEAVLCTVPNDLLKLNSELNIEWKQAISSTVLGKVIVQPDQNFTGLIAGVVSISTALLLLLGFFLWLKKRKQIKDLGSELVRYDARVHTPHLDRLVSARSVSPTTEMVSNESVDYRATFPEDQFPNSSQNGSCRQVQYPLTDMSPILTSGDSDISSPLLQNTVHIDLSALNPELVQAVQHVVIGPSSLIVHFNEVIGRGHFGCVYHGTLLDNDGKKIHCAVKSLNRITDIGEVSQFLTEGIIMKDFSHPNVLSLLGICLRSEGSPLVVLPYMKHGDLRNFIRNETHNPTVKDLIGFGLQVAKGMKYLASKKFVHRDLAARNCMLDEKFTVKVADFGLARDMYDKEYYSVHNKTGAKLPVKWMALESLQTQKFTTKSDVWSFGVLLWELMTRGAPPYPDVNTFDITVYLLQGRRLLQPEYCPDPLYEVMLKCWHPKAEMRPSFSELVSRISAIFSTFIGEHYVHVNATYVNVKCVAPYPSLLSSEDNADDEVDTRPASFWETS

[34] = biological target: NTRK2 (human) (UniProt Q16620)
[35] = biological target: PAK1 (human) (UniProt Q13153)
[36] = biological target: PDPK1 (human) (UniProt O15530)
[37] = biological target: PKMYT1 (human) (UniProt Q99640)
[38] = biological target: PRKCE (human) (UniProt Q02156)
[39] = biological target: PRKG2 (human) (UniProt Q13237)
[40] = biological target: RPS6KA2 KD1 (human) (UniProt Q15349)
[41] = biological target: TNNI3K (human) (UniProt Q59H18)
[42] = biological target: WEE1 (human) (UniProt P30291)

PRKCD (human), sequence (Q05655 whole entry, looked up): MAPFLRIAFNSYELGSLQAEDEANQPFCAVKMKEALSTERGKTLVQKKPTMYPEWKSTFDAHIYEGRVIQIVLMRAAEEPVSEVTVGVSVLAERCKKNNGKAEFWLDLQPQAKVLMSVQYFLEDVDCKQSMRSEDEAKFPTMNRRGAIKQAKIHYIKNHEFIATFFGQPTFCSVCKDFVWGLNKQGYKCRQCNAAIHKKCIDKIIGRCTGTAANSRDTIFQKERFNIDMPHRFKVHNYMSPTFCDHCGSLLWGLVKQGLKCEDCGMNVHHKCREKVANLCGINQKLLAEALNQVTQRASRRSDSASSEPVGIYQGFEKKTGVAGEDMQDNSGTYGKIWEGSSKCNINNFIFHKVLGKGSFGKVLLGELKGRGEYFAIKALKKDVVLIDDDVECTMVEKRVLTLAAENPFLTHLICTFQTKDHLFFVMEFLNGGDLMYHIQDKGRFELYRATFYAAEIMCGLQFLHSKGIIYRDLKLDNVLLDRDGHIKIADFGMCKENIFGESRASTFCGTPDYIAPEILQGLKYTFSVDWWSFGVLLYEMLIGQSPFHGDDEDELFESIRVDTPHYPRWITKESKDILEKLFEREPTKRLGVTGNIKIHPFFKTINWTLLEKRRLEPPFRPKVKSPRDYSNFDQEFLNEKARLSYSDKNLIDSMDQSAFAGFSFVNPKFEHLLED

Compound: COc1cc(N2CCC(O)CC2)ccc1Nc1ncc2c(n1)N1CCc3cccc(c31)C(=O)N2C
kinase still bound, per cent of control [3]: 63%
kinase still bound, per cent of control [4]: 96%
kinase still bound, per cent of control [5]: 36%
kinase still bound, per cent of control [6]: 23%
kinase still bound, per cent of control [7]: 100%
kinase still bound, per cent of control [8]: 78%
kinase still bound, per cent of control [9]: 100%
kinase still bound, per cent of control [10]: 87%
kinase still bound, per cent of control [11]: 86%
kinase still bound, per cent of control [1]: 100%
kinase still bound, per cent of control [12]: 42%
kinase still bound, per cent of control [13]: 90%
kinase still bound, per cent of control [14]: 78%
kinase still bound, per cent of control [15]: 64%
kinase still bound, per cent of control [16]: 100%
kinase still bound, per cent of control [17]: 95%
kinase still bound, per cent of control [18]: 98%
kinase still bound, per cent of control [19]: 100%
kinase still bound, per cent of control [20]: 87%
kinase still bound, per cent of control [21]: 100%
kinase still bound, per cent of control [22]: 93%
kinase still bound, per cent of control [23]: 100%
kinase still bound, per cent of control [24]: 100%
kinase still bound, per cent of control [25]: 84%
kinase still bound, per cent of control [26]: 90%
kinase still bound, per cent of control [27]: 100%
kinase still bound, per cent of control [28]: 96%
kinase still bound, per cent of control [29]: 100%
kinase still bound, per cent of control [30]: 100%
kinase still bound, per cent of control [31]: 42%
kinase still bound, per cent of control [32]: 61%
kinase still bound, per cent of control [33]: 90%
kinase still bound, per cent of control [34]: 100%
kinase still bound, per cent of control [35]: 83%
kinase still bound, per cent of control [36]: 100%
kinase still bound, per cent of control [37]: 69%
kinase still bound, per cent of control [2]: 100%
kinase still bound, per cent of control [38]: 91%
kinase still bound, per cent of control [39]: 96%
kinase still bound, per cent of control [40]: 77%
kinase still bound, per cent of control [41]: 100%
kinase still bound, per cent of control [42]: 100%

Compound: N=C1NC(=O)/C(=C/c2ccc(-c3ccc(F)cc3O)o2)S1
kinase still bound, per cent of control [10]: 6.6%
kinase still bound, per cent of control [11]: 12%

Compound: CS(=O)(=O)Nc1ccc(-c2cncc(/C=C3\SC(=N)NC3=O)c2)cc1
kinase still bound, per cent of control [22]: 28%
kinase still bound, per cent of control [35]: 9.4%

Compound: N=C1NC(=O)/C(=C/c2c[nH]c(=O)c(-c3ccc(N4CCNCC4)nc3)c2)S1
kinase still bound, per cent of control [1]: 3.4%

Compound: N=C1NC(=O)/C(=C/c2ccc(-c3ccccc3O)o2)S1
kinase still bound, per cent of control [10]: 20%

Compound: N=C1NC(=O)/C(=C/c2ccc(-c3ccc(C(N)=O)cc3O)o2)S1
kinase still bound, per cent of control [10]: 19%
kinase still bound, per cent of control [11]: 27%

Next, values leading:

kinase still bound, per cent of control [1]: 32%
kinase still bound, per cent of control [2]: 34%
Compound: CS(=O)(=O)Nc1ccc(-c2cc(/C=C3\SC(=N)NC3=O)c[nH]c2=O)cc1

kinase still bound, per cent of control [7]: 6.6%
kinase still bound, per cent of control [8]: 8.4%
kinase still bound, per cent of control [9]: 0.45%
kinase still bound, per cent of control [12]: 33%
kinase still bound, per cent of control [25]: 11%
kinase still bound, per cent of control [31]: 3%
kinase still bound, per cent of control [40]: 26%
Compound: N=C1NC(=O)/C(=C/c2ccc(-c3cncc4ccccc34)o2)S1

kinase still bound, per cent of control [13]: 33%
kinase still bound, per cent of control [14]: 30%
Compound: Nc1cccc(-c2cc(/C=C3\SC(=O)NC3=O)c[nH]c2=O)c1

kinase still bound, per cent of control [6]: 7.6%
kinase still bound, per cent of control [33]: 4.5%
kinase still bound, per cent of control [40]: 24%
Compound: CN1C(=O)[C@H]2CCC[C@H]2N(C2CCCC2)c2nc(Nc3ccc(C(N)=O)cc3)ncc21

kinase still bound, per cent of control [3]: 100%
kinase still bound, per cent of control [4]: 100%
kinase still bound, per cent of control [5]: 100%
kinase still bound, per cent of control [6]: 100%
kinase still bound, per cent of control [7]: 97%
kinase still bound, per cent of control [8]: 100%
kinase still bound, per cent of control [9]: 99%
kinase still bound, per cent of control [10]: 100%
kinase still bound, per cent of control [11]: 100%
kinase still bound, per cent of control [1]: 98%
kinase still bound, per cent of control [12]: 100%
kinase still bound, per cent of control [13]: 98%
kinase still bound, per cent of control [14]: 100%
kinase still bound, per cent of control [15]: 84%
kinase still bound, per cent of control [16]: 100%
kinase still bound, per cent of control [17]: 100%
kinase still bound, per cent of control [18]: 100%
kinase still bound, per cent of control [19]: 100%
kinase still bound, per cent of control [20]: 100%
kinase still bound, per cent of control [21]: 100%
kinase still bound, per cent of control [22]: 100%
kinase still bound, per cent of control [23]: 100%
kinase still bound, per cent of control [24]: 100%
kinase still bound, per cent of control [25]: 100%
kinase still bound, per cent of control [26]: 100%
kinase still bound, per cent of control [27]: 100%
kinase still bound, per cent of control [28]: 100%
kinase still bound, per cent of control [29]: 82%
kinase still bound, per cent of control [30]: 100%
kinase still bound, per cent of control [31]: 100%
kinase still bound, per cent of control [32]: 100%
kinase still bound, per cent of control [33]: 100%
kinase still bound, per cent of control [34]: 53%
kinase still bound, per cent of control [35]: 100%
kinase still bound, per cent of control [36]: 100%
kinase still bound, per cent of control [37]: 100%
kinase still bound, per cent of control [2]: 100%
kinase still bound, per cent of control [38]: 100%
kinase still bound, per cent of control [39]: 100%
kinase still bound, per cent of control [40]: 100%
kinase still bound, per cent of control [41]: 100%
kinase still bound, per cent of control [42]: 99%
Compound: CN1C(=O)c2ccccc2N(C)c2nc(NS(=O)(=O)c3ccc(N)cc3)ncc21

kinase still bound, per cent of control [22]: 3.6%
Compound: CS(=O)(=O)Nc1ccc(-c2ncc(/C=C3\SC(=N)NC3=O)s2)cc1

kinase still bound, per cent of control [5]: 32%
Compound: N=C1NC(=O)/C(=C/c2ccc(-c3csc4ccccc34)o2)S1

kinase still bound, per cent of control [5]: 30%
kinase still bound, per cent of control [7]: 28%
kinase still bound, per cent of control [8]: 27%
kinase still bound, per cent of control [9]: 2%
kinase still bound, per cent of control [12]: 14%
kinase still bound, per cent of control [22]: 28%
kinase still bound, per cent of control [25]: 7.9%
kinase still bound, per cent of control [29]: 13%
kinase still bound, per cent of control [30]: 24%
kinase still bound, per cent of control [31]: 12%
Compound: O=C1NC(=S)S/C1=C\c1ccc(-c2cncc3ccccc23)o1
